Results on eight compounds are retold here after US11099177B2, “Protein kinase allostery sensor and methods of making and using same” (REGENTS OF THE UNIVERSITY OF MINNESOTA, priority 2016, dated 2021).

Test [1] concerns the target T1, Aurora A (AurA) (Homo sapiens, UniProt O14965, C290S/C393S/L225C/S284C).
T1 construct: human Aurora A, residues 122-403, containing an N-terminal hexahistidine tag; hexahistidine (N); made in house; host or cells: E. coli BL21-DE3-RIL
T1 sequence (O14965 122-403 L225C/S284C/C290S/C393S): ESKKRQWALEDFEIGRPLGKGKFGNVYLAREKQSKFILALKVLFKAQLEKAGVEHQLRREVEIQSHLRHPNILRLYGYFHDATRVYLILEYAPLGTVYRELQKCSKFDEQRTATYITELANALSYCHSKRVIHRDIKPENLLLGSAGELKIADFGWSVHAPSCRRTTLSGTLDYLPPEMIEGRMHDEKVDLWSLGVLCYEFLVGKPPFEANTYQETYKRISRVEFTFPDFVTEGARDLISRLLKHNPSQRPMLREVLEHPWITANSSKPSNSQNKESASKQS
The test is described as follows: Steady-state FRET ligand titration with FRET-labeled AurA. Type of test: binding. The following applies: ligand added to apo AurA, calculated from published R0. The protocol:
(§1) ADP stocks (Sigma-Aldrich Corporation, St. Louis, Mo.) were dissolved at 100 mM in 1 M HEPES pH 7.5 and stored at −20° C.
(§2) Samples were excited at 490 nm and fluorescence emission was recorded 510 nm to 750 nm.
(§3) Ligand binding data were visualized and analyzed using Microsoft Excel and Origin software. FRET was calculated using the equation E=1−(DA/D), where E is the efficiency of FRET, DA is the fluorescence of the AurA+D+A sample, and D is the fluorescence of the corresponding AurA+D control sample.

For test [2], the system named is Aurora A (AurA). The description is as above. In kind it is binding, human. The following applies: apo AurA, Alexa 488/Alexa 568. As for the experimental part: as §1, §2, §3
Test [3] addresses T2, Aurora A (AurA) (Homo sapiens, UniProt O14965, C290S/C393S/L225C/T287C).
T2 construct: human Aurora A, residues 122-403, containing an N-terminal hexahistidine tag; hexahistidine (N); made in house; host or cells: E. coli BL21-DE3-RIL
T2 sequence (O14965 122-403 L225C/T287C/C290S/C393S): T1 sequence (O14965 122-403 L225C/S284C/C290S/C393S) with C163S, T166C
The test is described as follows: Time-resolved FRET ligand titration with labeled AurA (Example 1). The following applies: TR-FRET, ligand added to labeled AurA. Type of test: binding. As for the experimental part: Direct waveform recording experiments were performed in a 384 well plate, and measurement was performed using a NovaFluor fluorescence lifetime plate reader (Fluorescence Innovations, Inc., Minneapolis, Minn.). […] Experiments were performed at 50 nM AurA in ADP Quest Assay buffer+1% DMSO.
TCSPC experiments were performed using a spectrometer built by the group of Dr. David D. Thomas. […] Experiments were performed at 100 nM to 200 nM AurA in ADP Quest Assay buffer+1% DMSO.
On the technique in general: Time-resolved FRET reads energy transfer from a long-lived donor to a nearby acceptor.

A further test has as its target T3, AurA (Homo sapiens, UniProt O14965).
T3 sequence (O14965 1-403): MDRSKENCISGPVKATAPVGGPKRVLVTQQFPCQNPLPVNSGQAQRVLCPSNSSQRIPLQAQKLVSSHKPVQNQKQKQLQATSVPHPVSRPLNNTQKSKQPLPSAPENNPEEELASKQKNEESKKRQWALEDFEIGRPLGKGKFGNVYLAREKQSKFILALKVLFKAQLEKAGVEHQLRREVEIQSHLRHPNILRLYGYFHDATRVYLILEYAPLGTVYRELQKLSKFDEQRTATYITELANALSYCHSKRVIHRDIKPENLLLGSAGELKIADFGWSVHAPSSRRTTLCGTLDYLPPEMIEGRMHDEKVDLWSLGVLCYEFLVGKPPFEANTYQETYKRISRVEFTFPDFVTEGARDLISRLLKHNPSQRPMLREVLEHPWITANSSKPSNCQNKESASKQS
The following applies: FIG. 11; cited from earlier work.

Test [4] deals with T4, Aurora A (AurA) (Homo sapiens, UniProt O14965, C290S/C393S/L225C/S284C).
T4 sequence (O14965 122-403 L225C/S284C/C290S/C393S): T1 sequence (O14965 122-403 L225C/S284C/C290S/C393S)
T4 sequence (Q9ULW0 1-43 partner): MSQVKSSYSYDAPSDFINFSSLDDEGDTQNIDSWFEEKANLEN
The test is described as follows: Time-resolved FRET lifetime assay, AurA biosensor labeled at L225C/S284C, 384-well plates. The following applies: 5 μM inhibitor, unphosphorylated AurA bound to TPX2.
Procedure: (§4) Serial dilution of each of the inhibitors was performed to prepare 50× stock solutions in DMSO which were transferred to 96-well mother plates. Using a Mosquito HV liquid handler (TTP Labtech Ltd, UK), 1 μL of 50× stock solution was transferred from the 96-well mother plates to 384-well assay plates. […] Donor-only and donor+acceptor labeled AurA, +/− saturating concentrations of TPX2 (either 10 μM or 20 μM), were prepared separately to a final concentration in the plates of 1 nM or 50 nM AurA in ADP Quest buffer (15 mM HEPES, pH 7.4, 20 mM NaCl, 1 mM EGTA, 0.02% Tween-20, 10 mM MgCl2, 0.1 mg/mL BGG (bovine-γ-globulins), 1% DMSO). The donor-only and donor+acceptor samples were separately distributed to the 384-well assay plates using a Multidrop-Combi dispenser with standard plastic tip cassettes (Thermo Fisher Scientific, Waltham, Mass.). Plates were incubated at room temperature (25° C.) for 20 minutes prior to being read on the Fluorescence Lifetime Plate Reader which was designed and built by Fluorescence Innovations, Inc. (Minneapolis, Minn.).
(§5) In MATLAB, waveforms were normalized and grouped into samples types based on the plate layout and output into a format that can be read by the fitting program. These parameters include the timescale of experiments, the instrument response function (IRF), and the matched pairs of normalized donor plus acceptor (D+A) and donor-only (D−O) waveforms for each sample. […] Briefly, the instrument response function and the model of the fluorescence decay are convolved to define the nanosecond decay which describes the measured time-resolved waveforms. […] D+A samples were fit using the same exponential functions as the D−O fits, but modified by a distance-dependent FRET term, consisting of a Gaussian distribution of inter-probe distances, that describes the decrease in the lifetime relative to the D−O samples. The mean distance and full-width half maximum of the Gaussian functions were fit individually for each D+A and D−O pairing, while the parameters that described general conditions of the experiment common among all samples, such as the fraction of a given D+A sample containing D-only protein, were globally linked. Numerical fitting was performed using the Levenberg-Marquardt method.
(§6) The donor+acceptor waveform (FIG. 8C) was modeled from the amplitudes and lifetimes present in the matched donor-only sample and modified so that a distance-dependent resonance energy transfer term describes the decrease in fluorescence lifetime relative to the donor-only control. An iterative fitting procedure was employed in which parameters that could be shared across the plate were initially globally constrained while the remaining parameters settled into photo-physically realistic values, and then released to finalize the distance determinations. In the final iteration, the distance and full-width half maximum of the Gaussian model were allowed to vary individually for each sample.
(§7) The waveforms measured in the presence of a maximal concentration (5 μM) of each inhibitor were fit as described above.

The test system of test [5] is Aurora A (AurA). The description is as above. The following applies: for DFG-In/DFG-Out state of AurA on inhibitor binding / inter-probe distance: 5 μM inhibitor; for DFG-In/DFG-Out state of AurA on inhibitor binding: samples lacking TPX2; for inter-probe distance: samples lacking TPX2 (phosphorylated and unphosphorylated AurA).
Procedure: as §4, §5, §6, §7
The subject of test [6] is interaction between AurA and the oncoprotein MYC. The following applies: cited from earlier work.
A further test relates to p53-altered liver cancer. The following applies: mice; cited from earlier work.

Positions count from the first letter of the chain named.

For `Nc1ncnc2c1ncn2[C@@H]1O[C@H](COP(=O)(O)OP(=O)(O)O)[C@@H](O)[C@H]1O` [ADP], the “increase in population average R (donor-acceptor distance)” value at Aurora A (AurA) [1] is “approximately 3 Å”. Moreover, in the test with Aurora A (AurA) [2], the “change in FRET on addition of ligand” value is “reduce FRET”. Further, the “change in average fluorescence lifetime” value on Aurora A (AurA) [3] was “increase in average fluorescence lifetime”.
In the case of `CO[C@@H](C(=O)N1Cc2n[nH]c(NC(=O)c3ccc(N4CCN(C)CC4)cc3)c2C1)c1ccccc1` [Danusertib], the “AurA state in the X-ray structure with bound inhibitor” value on AurA is recorded as “DFG-Out state”. Moreover, on Aurora A (AurA) [4], the “inter-probe distance relative to DFG-In compounds” value is given as “slightly shorter distances”. Besides, in the test with Aurora A (AurA) [5], the “DFG-In/DFG-Out state of AurA on inhibitor binding” value is reported as “DFG-Out state” and the inter-probe distance is listed as about 30 Å.
In the case of `O=C(O)c1ccc(Nc2ncc3c(n2)-c2ccc(Cl)cc2C(c2c(F)cccc2F)=NC3)cc1` [MLN-8054], the “AurA state in the X-ray structure with bound inhibitor” value on AurA is “DFG-Out state”. The “effect on the AurA-MYC interaction” value in test [6] is reported as “disrupt”. Besides, in the test on p53-altered liver cancer, the treatment outcome is recorded as “successful treatment”. In addition, the “DFG-In/DFG-Out state of AurA on inhibitor binding” value in the test on Aurora A (AurA) [5] is recorded as “DFG-Out state”.
Regarding `CCc1cccc(CC)c1NC(=O)N1Cc2n[nH]c(NC(=O)c3ccc(N4CCN(C)CC4)cc3)c2C1` [PHA-680632], in the test with Aurora A (AurA) [5], the “DFG-In/DFG-Out state of AurA on inhibitor binding” value is reported as “DFG-In state” and the inter-probe distance entry is given as “long distances”.
In the case of `O=C(Nc1cccc(Cl)c1)Nc1ncc(CCNc2ncnc3ccsc23)s1` [SNS-314], the inter-probe distance result in the test with Aurora A (AurA) [5] is reported as “long distances”.
Turning to `COc1cc(N2CCC(N3CCN(C)CC3)CC2)ccc1Nc1ncc(Cl)c(Nc2ccccc2S(=O)(=O)C(C)C)n1` [TAE-684], in the test with Aurora A (AurA) [5], the “DFG-In/DFG-Out state of AurA on inhibitor binding” value was “DFG-In state” and the inter-probe distance result is listed as “long distances”.
Consider `Cc1cc(Nc2cc(N3CCN(C)CC3)nc(Sc3ccc(NC(=O)C4CC4)cc3)n2)n[nH]1` [VX-680], for which the “change in FRET on addition of ligand” value in the test with Aurora A (AurA) [2] is listed as “no observable change”. In the test on Aurora A (AurA) [5], the “DFG-In/DFG-Out state of AurA on inhibitor binding” value is reported as “DFG-Out state” and the inter-probe distance was about 30 Å.
As for “TPX2: AurA-specific activator peptide, synthetic construct of human TPX2 residues 1-43 (MSQVKSSYSYDAPSDFINFSSLDDEGDTQNIDSWFEEKANLEN; UniProt Q9ULW0 1-43, looked up, fragment)”, in the test with Aurora A (AurA) [2], the “change in FRET on addition of ligand” value was “reduces FRET”. Further, in the test with Aurora A (AurA) [5] (in the presence of TPX2, no inhibitor), the “width of the distance distribution (full width at half maximum)” value is given as “narrow significantly”. The inter-dye distance result with Aurora A (AurA) [5] (in the presence of TPX2, no inhibitor, unphosphorylated and phosphorylated samples (approximately 30 Å without TPX2)) was “approximately 50 Å”.
